From US20230312478A1, “HERBICIDAL COMPOUNDS” (SYNGENTA CROP PROTECTION AG, priority 2020, published 2023)

How the values were obtained:
Format in all cases: in vivo
Settings in all cases: 250 g/ha, evaluated visually after 13 days, scale 0-5
[1] = system: Abutilon theophrasti (ABUTH); experiment: Herbicidal efficacy, application post-emergence; design: key: 5 = total damage to plant; 0 = no damage to plant
Protocol: (§1) Seeds of a variety of test species [Ipomoea hederacea (IPOHE); Zea mays (ZEAMX); Echinochloa crus-galli (ECHCG); Setaria faberi (SETFA); Abutilon theophrasti (ABUTH); Amaranthus retroflexus (AMARE)] were sown in standard sterilised soil in pots. After cultivation for one day (pre-emergence) or after 8 days cultivation (post-emergence) under controlled conditions in a glasshouse (at 24/16° C., day/night; 14 hours light; 65 % humidity), the plants were sprayed with an aqueous spray solution derived from the formulation of the technical active ingredient in acetone / water (50:50) solution containing 0.5% Tween 20 (polyoxyethelyene sorbitan monolaurate, CAS RN 9005-64-5), subsequently diluted in water, and sprayed to give the stated application rate.
(§2) The test plants were then grown under controlled conditions in a glasshouse (at 24/16° C., day/night; 14 hours light; 65 % humidity) and watered twice daily.
(§3) After 13 days for pre- and post-emergence, the test was evaluated visually for percentage phytotoxicity to the plant (where 5 = total damage to plant; 0 = no damage to plant).

[2] = system: Echinochloa crus-galli (ECHCG); experiment: Herbicidal efficacy, application pre-emergence; design: key: 5 = total damage to plant; 0 = no damage to plant
Protocol: as §1, §2, §3

[3] = system: Setaria faberi (SETFA); experiment: Herbicidal efficacy, application pre-emergence; design: key: 5 = total damage to plant; 0 = no damage to plant
Protocol: as §1, §2, §3

[4] = system: Abutilon theophrasti (ABUTH); experiment: Herbicidal efficacy, application pre-emergence; design: key: 5 = total damage to plant; 0 = no damage to plant
Protocol: as §1, §2, §3

[5] = system: Ipomoea hederacea (IPOHE); experiment: Herbicidal efficacy, application pre-emergence; design: key: 5 = total damage to plant; 0 = no damage to plant
Protocol: as §1, §2, §3

[6] = system: Amaranthus retroflexus (AMARE); experiment: Herbicidal efficacy, application pre-emergence; design: key: 5 = total damage to plant; 0 = no damage to plant
Protocol: as §1, §2, §3

[7] = system: Echinochloa crus-galli (ECHCG); experiment: Herbicidal efficacy, application post-emergence
Protocol: as §1, §2, §3

[8] = system: Setaria faberi (SETFA); experiment: Herbicidal efficacy, application post-emergence
Protocol: as §1, §2, §3

[9] = system: Ipomoea hederacea (IPOHE); experiment: Herbicidal efficacy, application post-emergence
Protocol: as §1, §2, §3

[10] = system: Amaranthus retroflexus (AMARE); experiment: Herbicidal efficacy, application post-emergence
Protocol: as §1, §2, §3

[11] = system: Zea mays (ZEAMX); experiment: Herbicidal efficacy, application post-emergence
Protocol: as §1, §2, §3

[12] = system: Zea mays (ZEAMX); experiment: Herbicidal efficacy, application pre-emergence
Protocol: as §1, §2, §3

Cc1cc(C2CN(C)C(=O)C2C(=O)Nc2ccc(F)cc2F)nn1C(F)F (stereo not drawn) [Compound 57, 4-[1-(difluoromethyl)-5-methyl-pyrazol-3-yl]-N-(2,4-difluorophenyl)-1-methyl-2-oxo-pyrrolidine-3-carboxamide]
phytotoxicity to the plant, ABUTH [1]: 1
phytotoxicity to the plant, ECHCG [2]: 5
phytotoxicity to the plant, SETFA [3]: 5
phytotoxicity to the plant, ABUTH [4]: 1
phytotoxicity to the plant, IPOHE [5]: 1
phytotoxicity to the plant, AMARE [6]: 1
phytotoxicity to the plant, ECHCG [7]: 4
phytotoxicity to the plant, SETFA [8]: 4
phytotoxicity to the plant, IPOHE [9]: 3
phytotoxicity to the plant, AMARE [10]: 1
phytotoxicity to the plant, ZEAMX [11]: 2
phytotoxicity to the plant, ZEAMX [12]: 2

Cc1cc(C2CN(C)C(=S)C2C(=O)Nc2ccc(F)nc2F)nn1C(F)F (stereo not drawn) [Compound 85, 4-[1-(difluoromethyl)-5-methyl-pyrazol-3-yl]-N-(2,6-difluoro-3-pyridyl)-1-methyl-2-thioxo-pyrrolidine-3-carboxamide]
phytotoxicity to the plant, ABUTH [1]: 0
phytotoxicity to the plant, ECHCG [2]: 4
phytotoxicity to the plant, SETFA [3]: 4
phytotoxicity to the plant, ABUTH [4]: 0
phytotoxicity to the plant, IPOHE [5]: 0
phytotoxicity to the plant, AMARE [6]: 0
phytotoxicity to the plant, ECHCG [7]: 4
phytotoxicity to the plant, SETFA [8]: 2
phytotoxicity to the plant, IPOHE [9]: 1
phytotoxicity to the plant, AMARE [10]: 1
phytotoxicity to the plant, ZEAMX [11]: 1
phytotoxicity to the plant, ZEAMX [12]: 1

Cc1cc(C2CN(C)C(=O)C2C(=O)Nc2cccc(F)c2F)nn1C(F)F (stereo not drawn) [Compound 33, 4-[1-(difluoromethyl)-5-methyl-pyrazol-3-yl]-N-(2,3-difluorophenyl)-1-methyl-2-oxo-pyrrolidine-3-carboxamide]
phytotoxicity to the plant, ABUTH [1]: 1
phytotoxicity to the plant, ECHCG [2]: 5
phytotoxicity to the plant, SETFA [3]: 5
phytotoxicity to the plant, ABUTH [4]: 1
phytotoxicity to the plant, IPOHE [5]: 1
phytotoxicity to the plant, AMARE [6]: 2
phytotoxicity to the plant, ECHCG [7]: 4
phytotoxicity to the plant, SETFA [8]: 4
phytotoxicity to the plant, IPOHE [9]: 4
phytotoxicity to the plant, AMARE [10]: 2
phytotoxicity to the plant, ZEAMX [11]: 3
phytotoxicity to the plant, ZEAMX [12]: 4

CCc1cc(C2CN(C)C(=O)C2C(=O)Nc2ccc(F)nc2F)nn1C(F)F (stereo not drawn) [Compound 82, 4-[1-(difluoromethyl)-5-ethyl-pyrazol-3-yl]-N-(2,6-difluoro-3-pyridyl)-1-methyl-2-oxo-pyrrolidine-3-carboxamide]
phytotoxicity to the plant, ABUTH [1]: 1
phytotoxicity to the plant, ECHCG [2]: 5
phytotoxicity to the plant, SETFA [3]: 5
phytotoxicity to the plant, ABUTH [4]: 1
phytotoxicity to the plant, IPOHE [5]: 3
phytotoxicity to the plant, AMARE [6]: 1
phytotoxicity to the plant, ECHCG [7]: 4
phytotoxicity to the plant, SETFA [8]: 4
phytotoxicity to the plant, IPOHE [9]: 4
phytotoxicity to the plant, AMARE [10]: 1
phytotoxicity to the plant, ZEAMX [11]: 4
phytotoxicity to the plant, ZEAMX [12]: 3

CCc1cc(C2CN(C)C(=O)C2C(=O)Nc2cccc(F)c2C)nn1C(F)F (stereo not drawn) [Compound 10, 4-[1-(difluoromethyl)-5-ethyl-pyrazol-3-yl]-N-(3-fluoro-2-methylphenyl)-1-methyl-2-oxo-pyrrolidine-3-carboxamide]
phytotoxicity to the plant, ABUTH [1]: 0
phytotoxicity to the plant, ECHCG [2]: 5
phytotoxicity to the plant, SETFA [3]: 5
phytotoxicity to the plant, ABUTH [4]: 2
phytotoxicity to the plant, IPOHE [5]: 2
phytotoxicity to the plant, AMARE [6]: 1
phytotoxicity to the plant, ECHCG [7]: 4
phytotoxicity to the plant, SETFA [8]: 4
phytotoxicity to the plant, IPOHE [9]: 4
phytotoxicity to the plant, AMARE [10]: 1
phytotoxicity to the plant, ZEAMX [11]: 4
phytotoxicity to the plant, ZEAMX [12]: 4

CCc1cc(C2CN(C)C(=S)C2C(=O)Nc2ccc(F)nc2F)nn1C(F)F (stereo not drawn) [Compound 86, 4-[1-(difluoromethyl)-5-ethyl-pyrazol-3-yl]-N-(2,6-difluoro-3-pyridyl)-1-methyl-2-thioxo-pyrrolidine-3-carboxamide]
phytotoxicity to the plant, ABUTH [1]: 3
phytotoxicity to the plant, ECHCG [2]: 5
phytotoxicity to the plant, SETFA [3]: 5
phytotoxicity to the plant, ABUTH [4]: 1
phytotoxicity to the plant, IPOHE [5]: 0
phytotoxicity to the plant, AMARE [6]: 2
phytotoxicity to the plant, ECHCG [7]: 4
phytotoxicity to the plant, SETFA [8]: 4
phytotoxicity to the plant, IPOHE [9]: 1
phytotoxicity to the plant, AMARE [10]: 1
phytotoxicity to the plant, ZEAMX [11]: 3
phytotoxicity to the plant, ZEAMX [12]: 1

CCc1cc(C2CN(C)C(=O)C2C(=O)Nc2ccc(F)cc2F)nn1C(F)F (stereo not drawn) [Compound 58, 4-[1-(difluoromethyl)-5-ethyl-pyrazol-3-yl]-N-(2,4-difluorophenyl)-1-methyl-2-oxo-pyrrolidine-3-carboxamide]
phytotoxicity to the plant, ABUTH [1]: 0
phytotoxicity to the plant, ECHCG [2]: 5
phytotoxicity to the plant, SETFA [3]: 5
phytotoxicity to the plant, ABUTH [4]: 0
phytotoxicity to the plant, IPOHE [5]: 1
phytotoxicity to the plant, AMARE [6]: 0
phytotoxicity to the plant, ECHCG [7]: 4
phytotoxicity to the plant, SETFA [8]: 4
phytotoxicity to the plant, IPOHE [9]: 3
phytotoxicity to the plant, AMARE [10]: 1
phytotoxicity to the plant, ZEAMX [11]: 2
phytotoxicity to the plant, ZEAMX [12]: 3

Cc1c(Br)c(C2CN(C)C(=O)C2C(=O)Nc2ccc(F)nc2F)nn1C(F)F (stereo not drawn) [Compound 83, 4-[4-bromo-1-(difluoromethyl)-5-methyl-pyrazol-3-yl]-N-(2,6-difluoro-3-pyridyl)-1-methyl-2-oxo-pyrrolidine-3-carboxamide]
phytotoxicity to the plant, ABUTH [1]: 1
phytotoxicity to the plant, ECHCG [2]: 5
phytotoxicity to the plant, SETFA [3]: 5
phytotoxicity to the plant, ABUTH [4]: 0
phytotoxicity to the plant, IPOHE [5]: 0
phytotoxicity to the plant, AMARE [6]: 0
phytotoxicity to the plant, ECHCG [7]: 4
phytotoxicity to the plant, SETFA [8]: 3
phytotoxicity to the plant, IPOHE [9]: 1
phytotoxicity to the plant, AMARE [10]: 1
phytotoxicity to the plant, ZEAMX [11]: 4
phytotoxicity to the plant, ZEAMX [12]: 1
